Data set [1] has as its system CYP1A in rat liver microsomes (RLM). The data set is described as follows: Inhibition of NCMN-O-demethylation by CYP inhibitors in rat liver microsomes. The settings on record: RLM; 10 µM NCMN; 100 µM furafylline, 10 µM sulfaphenazole, 200 µM troleandomycin, 500 µM 1-ABT.
Data set [2] has as its target T1, CYP1A in mouse liver microsomes (MLM) (Mus musculus, UniProt P00186).
T1 sequence (P00186 2-513): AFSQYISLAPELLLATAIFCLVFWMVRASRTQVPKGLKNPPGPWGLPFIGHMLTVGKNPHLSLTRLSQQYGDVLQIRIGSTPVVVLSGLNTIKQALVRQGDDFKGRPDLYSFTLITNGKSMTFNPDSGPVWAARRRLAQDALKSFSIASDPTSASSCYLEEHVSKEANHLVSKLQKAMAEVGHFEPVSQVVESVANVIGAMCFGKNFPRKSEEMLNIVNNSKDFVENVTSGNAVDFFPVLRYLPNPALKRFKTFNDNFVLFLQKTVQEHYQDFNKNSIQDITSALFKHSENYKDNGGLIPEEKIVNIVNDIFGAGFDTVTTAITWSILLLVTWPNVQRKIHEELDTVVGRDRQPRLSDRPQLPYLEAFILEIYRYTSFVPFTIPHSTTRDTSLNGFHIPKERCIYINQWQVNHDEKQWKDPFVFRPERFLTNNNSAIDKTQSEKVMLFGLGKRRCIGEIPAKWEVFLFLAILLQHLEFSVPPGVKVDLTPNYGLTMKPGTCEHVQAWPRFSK
The data set is described as follows: Inhibition of NCMN-O-demethylation by CYP inhibitors in mouse liver microsomes. The settings on record: MLM; 10 µM NCMN; 100 µM furafylline, 10 µM sulfaphenazole, 200 µM troleandomycin, 500 µM 1-ABT. Background: Microsomes from liver hold many membrane-bound enzymes, among them those of drug oxidation.

Data set [3] deals with CYP1A in minipig liver microsomes (PLM). The data set is described as follows: Inhibition of NCMN-O-demethylation by CYP inhibitors in minipig liver microsomes. As to conditions: PLM; 10 µM NCMN; 100 µM furafylline, 10 µM sulfaphenazole, 200 µM troleandomycin, 500 µM 1-ABT.
Data set [4] addresses T2, CYP1A in beagle dog liver microsomes (DLM) (Canis lupus familiaris, UniProt P56592).
T2 sequence (P56592 2-512): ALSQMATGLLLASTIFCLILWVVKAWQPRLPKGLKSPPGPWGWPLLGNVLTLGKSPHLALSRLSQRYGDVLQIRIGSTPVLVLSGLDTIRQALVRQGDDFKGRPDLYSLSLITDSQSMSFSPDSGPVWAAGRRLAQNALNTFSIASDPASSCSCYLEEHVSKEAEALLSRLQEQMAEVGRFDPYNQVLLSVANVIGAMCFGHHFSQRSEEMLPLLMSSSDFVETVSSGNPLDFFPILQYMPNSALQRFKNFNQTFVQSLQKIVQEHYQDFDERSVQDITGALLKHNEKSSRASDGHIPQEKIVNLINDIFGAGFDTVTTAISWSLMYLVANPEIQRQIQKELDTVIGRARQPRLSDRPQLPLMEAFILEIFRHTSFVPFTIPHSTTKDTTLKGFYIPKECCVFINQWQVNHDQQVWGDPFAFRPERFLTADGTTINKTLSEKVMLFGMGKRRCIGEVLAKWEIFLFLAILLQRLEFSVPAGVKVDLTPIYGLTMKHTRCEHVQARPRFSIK
The data set is described as follows: Inhibition of NCMN-O-demethylation by CYP inhibitors in beagle dog liver microsomes. The settings on record: DLM; 10 µM NCMN; 100 µM furafylline, 10 µM sulfaphenazole, 200 µM troleandomycin, 500 µM 1-ABT.

Data set [5] concerns CYP1A in cynomolgus monkey liver microsomes (CyLM). The data set is described as follows: Inhibition of NCMN-O-demethylation by CYP inhibitors in cynomolgus monkey liver microsomes. The settings on record: CyLM; 10 µM NCMN; 100 µM furafylline, 10 µM sulfaphenazole, 200 µM troleandomycin, 500 µM 1-ABT.
Data set [6] relates to CYP1A (NCMN O-demethylation). Put plainly: Inhibition of NCMN-O-demethylation by CYP inhibitors in rat liver microsomes. As to conditions: rat, rat liver microsomes, pH 7.4, probe NCMN (various concentrations; formation of NCHN).
In data set [7] the target is T3, CYP1A (NCMN O-demethylation) (Mus musculus, UniProt P00186).
T3 sequence (P00186 2-513): T1 sequence (P00186 2-513)
Put plainly: Inhibition of NCMN-O-demethylation by CYP inhibitors in mouse liver microsomes. As to conditions: mouse, pH 7.4.

For data set [8], the system named is CYP1A (NCMN O-demethylation). The data set is described as follows: Inhibition of NCMN-O-demethylation by CYP inhibitors in minipig liver microsomes. The settings on record: minipig, pig, minipig liver microsomes, pH 7.4, probe NCMN (various concentrations; formation of NCHN).
For data set [9], the target named is T4, CYP1A (NCMN O-demethylation) (Canis lupus familiaris, UniProt P56592).
T4 sequence (P56592 2-512): T2 sequence (P56592 2-512)
Put plainly: Inhibition of NCMN-O-demethylation by CYP inhibitors in beagle dog liver microsomes. As to conditions: beagle, dog, pH 7.4.

Data set [10] deals with CYP1A (NCMN O-demethylation). Put plainly: Inhibition of NCMN-O-demethylation by CYP inhibitors in cynomolgus monkey liver microsomes. The settings on record: cynomolgus monkey, cynomolgus monkey liver microsomes, pH 7.4, probe NCMN (various concentrations; formation of NCHN).
Data set [11] concerns the target T5, CYP1A in human liver microsomes (HLM) (Homo sapiens, UniProt P05177).
T5 sequence (P05177 2-516): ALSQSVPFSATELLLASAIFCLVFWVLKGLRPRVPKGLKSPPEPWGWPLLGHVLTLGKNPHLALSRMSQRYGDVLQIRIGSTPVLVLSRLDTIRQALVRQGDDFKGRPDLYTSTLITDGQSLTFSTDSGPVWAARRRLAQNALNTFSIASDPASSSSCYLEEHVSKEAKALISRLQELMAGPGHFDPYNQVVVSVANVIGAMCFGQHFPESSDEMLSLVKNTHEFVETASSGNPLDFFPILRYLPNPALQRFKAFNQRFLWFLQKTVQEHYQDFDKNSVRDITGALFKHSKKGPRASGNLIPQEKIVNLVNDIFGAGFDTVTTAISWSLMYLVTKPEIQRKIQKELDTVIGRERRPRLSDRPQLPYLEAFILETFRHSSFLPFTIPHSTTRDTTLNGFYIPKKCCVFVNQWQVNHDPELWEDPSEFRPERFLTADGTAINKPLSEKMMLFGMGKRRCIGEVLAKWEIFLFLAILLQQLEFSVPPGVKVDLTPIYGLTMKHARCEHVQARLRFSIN
Put plainly: Inhibition of NCMN-O-demethylation by CYP inhibitors in human liver microsomes. As to conditions: 10 µM NCMN, 100 µM furafylline, 10 µM sulfaphenazole, 200 µM troleandomycin, 500 µM 1-ABT.

Substrate in data set [12]: COc1ccc2c3c(cccc13)C(=O)N(CCCC(=O)O)C2=O
Put plainly: Kinetic analysis of NCMN-O-demethylation in human CYP1A2. The format is in vitro ADME. The settings on record: other: CYP1A2 (human); substrate 1-150 µM; pH 7.4; 37.0 °C. The protocol:
(§1) The formation rates of NCHN were within the linear range of the protein concentration and incubation time. NCMN (1, 2.5, 5, 7.5, 10, 25, 50, 75, 100 and 150 µM) was incubated with HLM, MLM, RLM, DLM, PLM, CyLM (0.25mg protein/mL) as well as rat CYP1A2 (100 nM) for 30min. […] .

Substrate in data set [13]: COc1ccc2c3c(cccc13)C(=O)N(CCCC(=O)O)C2=O
Put plainly: Kinetic analysis of NCMN-O-demethylation in cDNA-expressed rat CYP1A2. The format is in vitro ADME. As to conditions: other: CYP1A2 (Rat), 100 nM; Michaelis-Menten; substrate 1-150 µM; pH 7.4; 37.0 °C. As for the experimental part:
as §1

What is called IC50 is the concentration needed to halve the response being measured. The Km is the substrate concentration at which the rate is half of its maximum.

Consider `Nn1nnc2ccccc21` [ABT, 1-Aminobenzotriazole], for which the “Inhibition of the formation of NCHN” value in data set [1], in data set [2], in [3], in data set [4] and in data set [5] was “potently inhibit” throughout.

Take `Cc1nc2c([nH]1)c(=O)n(C)c(=O)n2Cc1ccco1` [furafylline]: the IC50 in [6] was found to be […]; in data set [7], 5.73 µM; in data set [8], […]; in data set [9] it was 26.8 µM; in [10], […]. Further, the “Inhibition of the formation of NCHN” value in data set [1] is “near completely”; in data set [2], “near completely”; in data set [3], “lower inhibitory effects”; in data set [4] it was “lower inhibitory effects”; in [5], “lower inhibitory effects”.

Turning to `Nc1ccc(S(=O)(=O)Nc2ccnn2-c2ccccc2)cc1` [sulfaphenazole], the “Inhibition of the formation of NCHN” value in [1], in data set [11], in [2], in data set [3], in data set [4] and in data set [5] was “less than 25%” in each case.

B1: CYP1A2 (human) (Homo sapiens) (protein)
chain: MALSQSVPFSATELLLASAIFCLVFWVLKGLRPRVPKGLKSPPEPWGWPLLGHVLTLGKNPHLALSRMSQRYGDVLQIRIGSTPVLVLSRLDTIRQALVRQGDDFKGRPDLYTSTLITDGQSLTFSTDSGPVWAARRRLAQNALNTFSIASDPASSSSCYLEEHVSKEAKALISRLQELMAGPGHFDPYNQVVVSVANVIGAMCFGQHFPESSDEMLSLVKNTHEFVETASSGNPLDFFPILRYLPNPALQRFKAFNQRFLWFLQKTVQEHYQDFDKNSVRDITGALFKHSKKGPRASGNLIPQEKIVNLVNDIFGAGFDTVTTAISWSLMYLVTKPEIQRKIQKELDTVIGRERRPRLSDRPQLPYLEAFILETFRHSSFLPFTIPHSTTRDTTLNGFYIPKKCCVFVNQWQVNHDPELWEDPSEFRPERFLTADGTAINKPLSEKMMLFGMGKRRCIGEVLAKWEIFLFLAILLQQLEFSVPPGVKVDLTPIYGLTMKHARCEHVQARLRFSIN
For the molecule B1, in [12], the Km turned out to be 9.80 ± 0.67 µM and the kcat is listed as 32.06 ± 0.50 nmol/min/nmol CYP.

B2: CYP1A2 (Rat) (Rattus norvegicus) (protein)
chain: MAFSQYISLAPELLLATAIFCLVFWVLRGTRTQVPKGLKSPPGPWGLPFIGHMLTLGKNPHLSLTKLSQQYGDVLQIRIGSTPVVVLSGLNTIKQALVKQGDDFKGRPDLYSFTLITNGKSMTFNPDSGPVWAARRRLAQDALKSFSIASDPTSVSSCYLEEHVSKEANHLISKFQKLMAEVGHFEPVNQVVESVANVIGAMCFGKNFPRKSEEMLNLVKSSKDFVENVTSGNAVDFFPVLRYLPNPALKRFKNFNDNFVLFLQKTVQEHYQDFNKNSIQDITGALFKHSENYKDNGGLIPQEKIVNIVNDIFGAGFETVTTAIFWSILLLVTEPKVQRKIHEELDTVIGRDRQPRLSDRPQLPYLEAFILEIYRYTSFVPFTIPHSTTRDTSLNGFHIPKECCIFINQWQVNHDEKQWKDPFVFRPERFLTNDNTAIDKTLSEKVMLFGLGKRRCIGEIPAKWEVFLFLAILLHQLEFTVPPGVKVDLTPSYGLTMKPRTCEHVQAWPRFSK
notes: purchased Research Institute for Liver Diseases (RILD, Shanghai, China) Lot.int066e1c
On to B2, for which, in data set [13], the Km stood at 4.04 ± 0.16 µM and the kcat is on record as 7.48±0.05 nmol/min/nmol CYP.

For the origin of these results see paper PMC6695839, “Interspecies Variation in NCMN-O-Demethylation in Liver Microsomes from Various Species” (Molecules, 2019).
